For eleven compounds, Kd results are on record in ChEMBL document CHEMBL3991601, “The target landscape of clinical kinase drugs” (Science, 2017).

Structures are written as SMILES. The source made the active and inactive calls. For most assays here, no stated cut-off is given here; in the data, actives have a measured Kd and inactives only a lower limit. A value given as a limit tells only on which side of the number the result lay.

In general, Kd refers to the constant that tells how readily two partners part at equilibrium.

Assay [1] has as its target Dual specificity protein kinase CLK2 (Homo sapiens, UniProt P49760).
The target of assay [2] is Serine/threonine-protein kinase 10 (Homo sapiens, UniProt O94804).
For assay [3], the target named is T1, Cyclin-G-associated kinase (Homo sapiens, UniProt O14976).
T1 sequence (O14976 whole entry): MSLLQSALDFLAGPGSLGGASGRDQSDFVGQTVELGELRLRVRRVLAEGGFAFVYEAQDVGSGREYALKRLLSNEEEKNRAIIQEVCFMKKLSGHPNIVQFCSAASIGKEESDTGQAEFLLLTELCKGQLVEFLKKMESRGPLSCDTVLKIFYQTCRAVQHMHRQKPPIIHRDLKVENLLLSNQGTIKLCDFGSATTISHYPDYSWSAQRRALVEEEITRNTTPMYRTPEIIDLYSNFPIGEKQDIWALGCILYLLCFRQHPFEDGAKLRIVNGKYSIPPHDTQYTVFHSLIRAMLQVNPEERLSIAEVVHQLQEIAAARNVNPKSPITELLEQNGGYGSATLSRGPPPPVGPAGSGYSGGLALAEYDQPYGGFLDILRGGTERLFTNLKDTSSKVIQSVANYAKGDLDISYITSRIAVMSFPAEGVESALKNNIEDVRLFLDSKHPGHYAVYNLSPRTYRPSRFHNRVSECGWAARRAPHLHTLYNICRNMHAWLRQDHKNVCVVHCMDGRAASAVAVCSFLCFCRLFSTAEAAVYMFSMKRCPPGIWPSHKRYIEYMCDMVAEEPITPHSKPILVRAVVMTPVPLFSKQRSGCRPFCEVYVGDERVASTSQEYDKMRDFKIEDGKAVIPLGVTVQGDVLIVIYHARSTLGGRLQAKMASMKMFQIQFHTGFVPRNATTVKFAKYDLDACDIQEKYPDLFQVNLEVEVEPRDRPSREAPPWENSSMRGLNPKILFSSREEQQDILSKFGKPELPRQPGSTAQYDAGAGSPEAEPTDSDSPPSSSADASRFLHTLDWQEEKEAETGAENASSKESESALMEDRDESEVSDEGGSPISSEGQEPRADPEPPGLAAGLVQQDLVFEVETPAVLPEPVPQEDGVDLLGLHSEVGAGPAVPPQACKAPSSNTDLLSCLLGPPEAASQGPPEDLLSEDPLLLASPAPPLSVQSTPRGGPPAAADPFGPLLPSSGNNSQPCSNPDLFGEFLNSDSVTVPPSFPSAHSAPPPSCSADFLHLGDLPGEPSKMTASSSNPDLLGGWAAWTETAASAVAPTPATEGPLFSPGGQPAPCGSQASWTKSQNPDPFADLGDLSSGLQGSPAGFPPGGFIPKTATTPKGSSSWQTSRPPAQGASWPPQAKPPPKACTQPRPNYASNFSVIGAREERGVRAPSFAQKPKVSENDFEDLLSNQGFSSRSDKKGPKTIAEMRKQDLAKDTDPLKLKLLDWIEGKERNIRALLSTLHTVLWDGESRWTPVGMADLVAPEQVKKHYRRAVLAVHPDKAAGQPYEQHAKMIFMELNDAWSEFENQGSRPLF

Assay [4] concerns the target T2, ATP-dependent 6-phosphofructokinase, platelet type (Homo sapiens, UniProt Q01813).
T2 sequence (Q01813 whole entry): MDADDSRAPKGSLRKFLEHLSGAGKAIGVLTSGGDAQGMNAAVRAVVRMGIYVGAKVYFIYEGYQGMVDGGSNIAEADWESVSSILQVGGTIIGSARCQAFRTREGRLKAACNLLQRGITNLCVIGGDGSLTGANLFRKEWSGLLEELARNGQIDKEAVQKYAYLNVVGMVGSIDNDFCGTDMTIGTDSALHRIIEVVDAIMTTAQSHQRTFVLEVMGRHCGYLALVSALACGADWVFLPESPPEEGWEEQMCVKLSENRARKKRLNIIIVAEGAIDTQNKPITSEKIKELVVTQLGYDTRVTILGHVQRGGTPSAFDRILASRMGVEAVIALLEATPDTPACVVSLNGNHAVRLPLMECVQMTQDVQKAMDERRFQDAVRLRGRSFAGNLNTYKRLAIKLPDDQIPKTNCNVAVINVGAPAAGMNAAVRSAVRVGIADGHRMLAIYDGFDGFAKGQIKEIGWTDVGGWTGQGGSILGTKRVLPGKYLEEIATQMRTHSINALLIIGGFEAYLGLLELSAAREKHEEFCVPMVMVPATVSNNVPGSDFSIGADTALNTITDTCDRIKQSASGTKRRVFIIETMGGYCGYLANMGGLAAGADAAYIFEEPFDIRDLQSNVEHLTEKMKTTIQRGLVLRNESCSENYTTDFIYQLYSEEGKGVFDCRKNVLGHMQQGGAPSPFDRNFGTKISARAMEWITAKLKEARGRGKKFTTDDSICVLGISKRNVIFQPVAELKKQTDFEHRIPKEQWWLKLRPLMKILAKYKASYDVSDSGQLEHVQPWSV

In assay [5] the target is Membrane-associated progesterone receptor component 1 (Homo sapiens, UniProt O00264).
The target of assay [6] is Cyclin-dependent kinase 5 (Homo sapiens, UniProt Q00535).
Assay [7] deals with T3, cGMP-dependent protein kinase 1 (Homo sapiens, UniProt Q13976).
T3 sequence (Q13976 whole entry): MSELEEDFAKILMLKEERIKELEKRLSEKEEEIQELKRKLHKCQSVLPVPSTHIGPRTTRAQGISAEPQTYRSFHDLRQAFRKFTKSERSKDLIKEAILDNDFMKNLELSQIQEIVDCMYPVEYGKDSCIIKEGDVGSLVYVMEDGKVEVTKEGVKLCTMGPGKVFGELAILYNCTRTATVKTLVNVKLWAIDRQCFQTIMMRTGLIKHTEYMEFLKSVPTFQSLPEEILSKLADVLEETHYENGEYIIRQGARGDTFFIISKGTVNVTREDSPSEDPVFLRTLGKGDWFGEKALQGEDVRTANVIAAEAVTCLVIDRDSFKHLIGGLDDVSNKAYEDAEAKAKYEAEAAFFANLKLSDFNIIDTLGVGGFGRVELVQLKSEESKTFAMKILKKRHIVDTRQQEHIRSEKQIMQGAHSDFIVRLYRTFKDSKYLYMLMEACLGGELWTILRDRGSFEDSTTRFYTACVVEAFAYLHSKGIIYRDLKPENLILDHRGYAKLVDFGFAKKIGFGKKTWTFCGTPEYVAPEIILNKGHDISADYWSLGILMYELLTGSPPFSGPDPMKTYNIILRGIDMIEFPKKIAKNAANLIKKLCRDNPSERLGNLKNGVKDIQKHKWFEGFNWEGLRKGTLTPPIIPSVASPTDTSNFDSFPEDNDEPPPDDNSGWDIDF

In assay [8] the target is Tyrosine-protein kinase Lck (Homo sapiens, UniProt P06239).
Sequence of Tyrosine-protein kinase Lck (P06239 whole entry): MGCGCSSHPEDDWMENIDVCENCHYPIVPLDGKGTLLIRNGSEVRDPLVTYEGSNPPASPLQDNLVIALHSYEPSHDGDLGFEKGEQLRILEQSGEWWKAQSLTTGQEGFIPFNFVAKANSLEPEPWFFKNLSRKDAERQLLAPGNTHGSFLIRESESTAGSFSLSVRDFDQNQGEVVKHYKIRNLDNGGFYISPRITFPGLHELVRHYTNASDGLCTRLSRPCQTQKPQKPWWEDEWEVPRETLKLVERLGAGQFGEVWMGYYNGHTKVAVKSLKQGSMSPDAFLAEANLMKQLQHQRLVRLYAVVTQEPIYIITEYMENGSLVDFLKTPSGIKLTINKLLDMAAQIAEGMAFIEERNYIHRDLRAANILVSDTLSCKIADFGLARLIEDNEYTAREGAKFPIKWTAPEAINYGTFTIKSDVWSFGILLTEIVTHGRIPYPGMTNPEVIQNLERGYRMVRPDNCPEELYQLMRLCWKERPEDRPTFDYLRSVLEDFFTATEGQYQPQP

Sequence of Serine/threonine-protein kinase 10 (O94804 whole entry): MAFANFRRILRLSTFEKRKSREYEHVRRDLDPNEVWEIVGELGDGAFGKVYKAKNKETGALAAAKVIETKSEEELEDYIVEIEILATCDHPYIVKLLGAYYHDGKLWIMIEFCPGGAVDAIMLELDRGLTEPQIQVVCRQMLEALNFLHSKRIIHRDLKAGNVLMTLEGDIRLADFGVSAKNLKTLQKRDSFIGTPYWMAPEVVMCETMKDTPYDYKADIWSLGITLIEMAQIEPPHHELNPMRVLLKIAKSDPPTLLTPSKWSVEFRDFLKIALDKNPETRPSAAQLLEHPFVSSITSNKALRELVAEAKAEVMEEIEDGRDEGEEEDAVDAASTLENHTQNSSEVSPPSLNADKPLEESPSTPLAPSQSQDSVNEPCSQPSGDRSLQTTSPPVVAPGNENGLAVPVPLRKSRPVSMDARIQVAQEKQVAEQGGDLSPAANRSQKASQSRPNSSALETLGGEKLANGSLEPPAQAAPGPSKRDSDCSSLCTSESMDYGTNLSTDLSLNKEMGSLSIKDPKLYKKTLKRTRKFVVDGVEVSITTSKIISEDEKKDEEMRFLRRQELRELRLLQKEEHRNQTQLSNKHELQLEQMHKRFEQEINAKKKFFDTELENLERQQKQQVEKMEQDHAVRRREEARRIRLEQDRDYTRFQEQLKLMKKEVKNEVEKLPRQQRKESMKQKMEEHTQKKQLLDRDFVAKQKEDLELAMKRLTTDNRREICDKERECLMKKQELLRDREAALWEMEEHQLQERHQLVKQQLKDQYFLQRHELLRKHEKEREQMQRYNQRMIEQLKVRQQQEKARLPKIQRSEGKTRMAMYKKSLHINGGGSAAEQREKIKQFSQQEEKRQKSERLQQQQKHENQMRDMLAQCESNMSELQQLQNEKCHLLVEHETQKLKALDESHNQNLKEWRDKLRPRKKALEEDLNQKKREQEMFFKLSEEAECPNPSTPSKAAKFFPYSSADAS
Sequence of Dual specificity protein kinase CLK2 (P49760 whole entry): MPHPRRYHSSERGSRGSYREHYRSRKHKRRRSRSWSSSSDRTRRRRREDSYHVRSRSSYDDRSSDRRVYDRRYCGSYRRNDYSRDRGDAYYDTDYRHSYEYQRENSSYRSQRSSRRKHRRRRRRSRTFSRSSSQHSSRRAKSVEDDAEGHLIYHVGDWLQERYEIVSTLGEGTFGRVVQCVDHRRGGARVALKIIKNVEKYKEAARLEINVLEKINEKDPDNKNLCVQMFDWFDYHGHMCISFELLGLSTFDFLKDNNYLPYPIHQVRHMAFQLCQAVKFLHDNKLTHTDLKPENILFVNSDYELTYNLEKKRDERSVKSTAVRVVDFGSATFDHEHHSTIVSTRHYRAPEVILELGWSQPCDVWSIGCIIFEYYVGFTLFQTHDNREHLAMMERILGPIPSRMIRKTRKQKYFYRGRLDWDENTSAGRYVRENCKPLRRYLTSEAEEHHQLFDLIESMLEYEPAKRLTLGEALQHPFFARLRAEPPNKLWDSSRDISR
Sequence of Cyclin-dependent kinase 5 (Q00535 whole entry): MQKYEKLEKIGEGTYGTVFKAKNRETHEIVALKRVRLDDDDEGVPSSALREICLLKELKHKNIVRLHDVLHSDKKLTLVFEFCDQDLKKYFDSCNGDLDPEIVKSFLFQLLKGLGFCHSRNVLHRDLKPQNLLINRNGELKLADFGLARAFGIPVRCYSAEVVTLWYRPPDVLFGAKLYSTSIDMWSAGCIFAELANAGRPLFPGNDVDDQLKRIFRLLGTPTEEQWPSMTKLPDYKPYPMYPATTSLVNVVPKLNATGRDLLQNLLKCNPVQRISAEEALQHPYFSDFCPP
Sequence of Membrane-associated progesterone receptor component 1 (O00264 whole entry): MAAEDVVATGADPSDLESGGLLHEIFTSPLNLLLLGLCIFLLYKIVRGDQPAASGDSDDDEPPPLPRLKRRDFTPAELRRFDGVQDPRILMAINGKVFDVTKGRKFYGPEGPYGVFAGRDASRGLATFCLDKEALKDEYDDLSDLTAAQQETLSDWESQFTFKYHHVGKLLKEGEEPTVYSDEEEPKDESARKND

Take `Cc1nc2cc(-n3ncc(C(=O)c4cc5ccccc5[nH]4)c3N)ccc2[nH]1` [FGFR INHIBITOR DEBIO 1347]: the Kd in assay [1], in assay [2], in assay [3], in assay [4], in assay [5] and in assay [6] was > 30 µM (inactive) each time. In addition, the Kd in assay [7] and in assay [8] was > 30 µM (inactive) in each case.

For the compound `O=C(Nc1nc2cccc(-c3ccc(CN4CCS(=O)(=O)CC4)cc3)n2n1)C1CC1` [FILGOTINIB], the Kd is > 30 µM (inactive) in assay [1]; 1.91 µM (active) in assay [2]; > 30 µM (inactive) in assay [3]; > 30 µM (inactive) in assay [4]; > 30 µM (inactive) in assay [5]; > 30 µM (inactive) in assay [6]. The Kd in assay [7] and in assay [8] was > 30 µM (inactive) each time.

Regarding `Cc1cccc(-c2nn3c(c2-c2ccnc4ccc(C(N)=O)cc24)CCC3)n1` [GALUNISERTIB], the Kd in assay [1] was > 30 µM (inactive); in assay [2], > 30 µM (inactive); in assay [3], 0.495 µM (active); in assay [4], > 30 µM (inactive); in assay [5] it was > 30 µM (inactive); in assay [6], > 30 µM (inactive). Also, the Kd in assay [7] and in assay [8] was > 30 µM (inactive) each time.

Consider `CNC(=O)c1cccc2cc(Oc3ccnc4cc(OCC5(N)CC5)c(OC)cc34)ccc12` [LUCITANIB], for which the Kd in assay [1], in assay [2], in assay [3], in assay [4], in assay [5] and in assay [6] was > 30 µM (inactive) each time. Moreover, the Kd in assay [7] and in assay [8] was > 30 µM (inactive) throughout.

In the case of `NC1(c2ccc(-c3nc4ccn5c(=O)[nH]nc5c4cc3-c3ccccc3)cc2)CCC1` [MK-2206], the Kd in assay [1], in assay [2], in assay [3], in assay [4], in assay [5] and in assay [6] was > 30 µM (inactive) in each case. In addition, the Kd in assay [7] and in assay [8] was > 30 µM (inactive) each time.

In the case of `FC(F)(F)c1ccc(/C=C/c2nc(COc3ccc(CCCCn4ccnn4)cc3)co2)cc1` [MUBRITINIB], the Kd in assay [1], in assay [2], in assay [3], in assay [4], in assay [5] and in assay [6] was > 30 µM (inactive) each time. Also, the Kd in assay [7] and in assay [8] was > 30 µM (inactive) in each case.

`COc1ncc(-c2ccc3nccc(-c4ccnnc4)c3c2)cc1NS(=O)(=O)c1ccc(F)cc1F` [OMIPALISIB]: the Kd in assay [1], in assay [2], in assay [3], in assay [4], in assay [5] and in assay [6] was > 30 µM (inactive) throughout. Besides, the Kd in assay [7] and in assay [8] was > 30 µM (inactive) throughout.

In the case of `Cc1nc(Nc2n[nH]c3c2CN(C(=O)N[C@H](CN(C)C)c2ccccc2)C3(C)C)c2sccc2n1` [PF-03758309], the Kd in assay [1] was > 30 µM (inactive); in assay [2] it was > 30 µM (inactive); in assay [3], 1.95 µM (active); in assay [4], > 30 µM (inactive); in assay [5], > 30 µM (inactive); in assay [6], > 30 µM (inactive). The Kd in assay [7] was 0.808 µM (active); in assay [8], > 30 µM (inactive).

Consider `Cc1cnc(NC(=O)Nc2cc(Br)c(C)cc2OC[C@@H]2CNCCO2)cn1` [RABUSERTIB], for which the Kd in assay [1], in assay [2], in assay [3], in assay [4], in assay [5] and in assay [6] was > 30 µM (inactive) throughout. The Kd in assay [7] and in assay [8] was > 30 µM (inactive) each time.

On to `O=c1[nH]ccc2cc(OC3CCNCC3)ccc12` [SAR-407899 FREE BASE], for which the Kd in assay [1], in assay [2], in assay [3], in assay [4], in assay [5] and in assay [6] was > 30 µM (inactive) in each case. Besides, the equilibrium dissociation constant (Kd) is 0.004 µM in assay [7] and > 30 µM (inactive) in assay [8].

On to `CO[C@H]1C[C@@H]2CC[C@@H](C)[C@@](O)(O2)C(=O)C(=O)N2CCCC[C@H]2C(=O)O[C@H]([C@H](C)C[C@@H]2CC[C@@H](OC(=O)C(C)(CO)CO)[C@H](OC)C2)CC(=O)[C@H](C)/C=C(\C)[C@@H](O)[C@@H](OC)C(=O)[C@H](C)C[C@H](C)/C=C/C=C/C=C/1C` [TEMSIROLIMUS], for which the Kd in assay [1], in assay [2], in assay [3], in assay [4], in assay [5] and in assay [6] was > 30 µM (inactive) each time. Further, the Kd in assay [7] and in assay [8] was > 30 µM (inactive) each time.
